Consider 4 compounds from ChEMBL document CHEMBL2390874, “Synthesis, antibacterial activity and cytotoxicity of new fused pyrazolo[1,5-a]pyrimidine and pyrazolo[5,1-c][1,2,4]triazine derivatives from new 5-aminopyrazoles” (Eur J Med Chem, 2013).

Series [1] has as its system Pseudomonas aeruginosa. The series is described as follows: Bactericidal activity against Pseudomonas aeruginosa ATCC 10145 by broth dilution method. It is filed as functional. In general terms: Dilution methods test growth across graded concentrations, often in twofold steps.
Series [2] deals with Bacillus subtilis. The series is described as follows: Bactericidal activity against Bacillus subtilis ATCC 11774 by broth dilution method. It is filed as functional.
The subject of series [3] is Salmonella typhimurium. The series is described as follows: Antibacterial activity against Salmonella typhimurium ATCC 51812 assessed as growth inhibition at 1 mg/ml after 24 hrs by agar diffusion method. The conditions noted are these: Salmonella enterica subsp. enterica serovar Typhimurium. It is filed as functional, organism-based. A general note: Agar diffusion results depend on both activity and mobility in agar.

In series [4] the test system is Staphylococcus aureus. The series is described as follows: Antibacterial activity against Staphylococcus aureus ATCC 25923 assessed as growth inhibition by broth dilution method. It is filed as functional.
The subject of series [5] is Staphylococcus aureus. The series is described as follows: Bactericidal activity against Staphylococcus aureus ATCC 25923 by broth dilution method. It is filed as functional.
The test system of series [6] is Escherichia coli. The series is described as follows: Antibacterial activity against Escherichia coli ATCC 10536 assessed as growth inhibition at 1 mg/ml after 24 hrs by agar diffusion method. It counts as functional. Conditions: ATCC 10536, 24 h, read-out: DIZ.
Series [7] relates to Staphylococcus aureus. The series is described as follows: Antibacterial activity against Staphylococcus aureus ATCC 25923 assessed as growth inhibition at 1 mg/ml after 24 hrs by agar diffusion method. It counts as functional. Conditions: ATCC 25923, 24 h, read-out: DIZ.
Series [8] concerns Staphylococcus epidermidis. The series is described as follows: Antibacterial activity against Staphylococcus epidermidis ATCC 12228 assessed as growth inhibition at 1 mg/ml after 24 hrs by agar diffusion method. It counts as functional, organism-based.
A short description of series [9]: Cytotoxicity against african green monkey vero cells by MTT assay. It counts as cell-based. The conditions noted are these: chlorocebus sabaeus. (In general: Tetrazolium assays rely on reduction of a dye to a coloured formazan, in cell work by metabolically active cells.)
Series [10] concerns Serratia marcescens. The series is described as follows: Antibacterial activity against Serratia marcescens ATCC 13880 assessed as growth inhibition by broth dilution method. It is filed as functional.
Series [11] has as its system Escherichia coli. The series can be described thus: Bactericidal activity against Escherichia coli ATCC 10536 by broth dilution method. It is filed as functional.
Series [12] is described as follows: Selectivity index, ratio of CC50 for african green monkey vero cells to MIC for Escherichia coli ATCC 10536. It counts as functional.
The test system of series [13] is Bacillus subtilis. The series can be described thus: Antibacterial activity against Bacillus subtilis ATCC 11774 assessed as growth inhibition by broth dilution method. It counts as functional.
Series [14] can be described thus: Selectivity index, ratio of CC50 for african green monkey vero cells to MIC for Bacillus subtilis ATCC 11774. It is filed as functional.
Series [15] can be described thus: Selectivity index, ratio of CC50 for african green monkey vero cells to MIC for Pseudomonas aeruginosa ATCC 10145. It counts as functional.
Series [16] relates to Staphylococcus aureus. The series is described as follows: Antibacterial activity against methicillin-resistant Staphylococcus aureus ATCC 43300 assessed as growth inhibition at 1 mg/ml after 24 hrs by agar diffusion method. It counts as functional, organism-based.
A short description of series [17]: Selectivity index, ratio of CC50 for african green monkey vero cells to MIC for Serratia marcescens ATCC 13880. It counts as functional.
For series [18], the system named is Pseudomonas aeruginosa. The series can be described thus: Antibacterial activity against Pseudomonas aeruginosa ATCC 10145 assessed as growth inhibition by broth dilution method. It is filed as functional.
Series [19] concerns Serratia marcescens. The series is described as follows: Antibacterial activity against Serratia marcescens ATCC 13880 assessed as growth inhibition at 1 mg/ml after 24 hrs by agar diffusion method. Conditions: ATCC 13880, 24 h, read-out: DIZ. It counts as functional.
The subject of series [20] is Escherichia coli. The series is described as follows: Antibacterial activity against Escherichia coli ATCC 10536 assessed as growth inhibition by broth dilution method. It is filed as functional.
Series [21] deals with Bacillus subtilis. The series can be described thus: Antibacterial activity against Bacillus subtilis ATCC 11774 assessed as growth inhibition at 1 mg/ml after 24 hrs by agar diffusion method. It is filed as functional. The conditions noted are these: ATCC 11774, 24 h, read-out: DIZ.
Series [22] is described as follows: Selectivity index, ratio of CC50 for african green monkey vero cells to MIC for Staphylococcus aureus ATCC 25923. It is filed as functional.
Series [23] has as its system Pseudomonas aeruginosa. The series can be described thus: Antibacterial activity against Pseudomonas aeruginosa ATCC 10145 assessed as growth inhibition at 1 mg/ml after 24 hrs by agar diffusion method. It is filed as functional. The conditions noted are these: ATCC 10145, 24 h, read-out: DIZ.
Series [24] has as its system Serratia marcescens. The series can be described thus: Bactericidal activity against Serratia marcescens ATCC 13880 by broth dilution method. It counts as functional.
For series [25], the system named is Enterococcus faecalis. The series is described as follows: Antibacterial activity against Enterococcus faecalis ATCC 14506 assessed as growth inhibition at 1 mg/ml after 24 hrs by agar diffusion method. It counts as functional, organism-based.

Usually MBC stands for the smallest concentration meeting the test's criterion for killing. As usually defined, the MIC is the lowest concentration that inhibits growth of the organism. A word on the CC50: it is the concentration at which the toxic effect on the cells reaches its halfway point.

Values after ≈ are worked out from the molar mass of the structure shown. Active and inactive are the calls of the source.

On to `CSc1c(C#N)c(N)nc2c(C#N)c(N3CCCCC3)nn12`, for which the MBC in [1], in series [2], in series [5], in series [11] and in [24] was 16 mg/mL (≈ 51.1 mM) each time. Further, the “growth inhibition (GI)” value in series [3], in series [8], in series [16] and in series [25] was “inactive” in each case. Also, the MIC in series [4] is 16 mg/mL (≈ 51.1 mM); in [10], 16 mg/mL (≈ 51.1 mM); in series [13], 16 mg/mL (≈ 51.1 mM); in [18] it was 8 mg/mL (≈ 25.5 mM); in [20], 16 mg/mL (≈ 51.1 mM). Further, the zone of inhibition at 1000 µg/mL was 10 mm in [6]; 11 mm in series [7]; 7 mm in series [19]; 10 mm in series [21]; 7 mm in [23]. This compound had a CC50 in series [9] of 1.75 mg/mL (≈ 5.58 mM). Also, the “Selectivity Index” value worked out at 0.11 in series [12]; 0.11 in [14]; 0.22 in series [15]; 0.11 in series [17]; 0.11 in series [22].

Turning to `N#Cc1c(N2CCOCC2)n[nH]c1N`, the MBC in series [1] is 16 mg/mL (≈ 82.8 mM); in series [2], 16 mg/mL (≈ 82.8 mM); in series [5], above 16 mg/mL; in series [11], 16 mg/mL (≈ 82.8 mM); in series [24], 8 mg/mL (≈ 41.4 mM). For the same compound, the “growth inhibition (GI)” value in series [3], in series [8], in series [16] and in series [25] was “inactive” in each case. Further, the MIC came to 16 mg/mL (≈ 82.8 mM) in series [4]; 8 mg/mL (≈ 41.4 mM) in series [10]; 16 mg/mL (≈ 82.8 mM) in [13]; 8 mg/mL (≈ 41.4 mM) in series [18]; 8 mg/mL (≈ 41.4 mM) in [20]. The zone of inhibition at 1000 µg/mL in [6] amounted to 11 mm; in [7], 11 mm; in series [19], 6 mm; in series [21] it was 6 mm; in [23] it was 7 mm. This compound gave a cytotoxic concentration (CC50) in [9] of 2.34 mg/mL (≈ 12.1 mM). For the same compound, the “Selectivity Index” value in series [12] came out at 0.29; in series [14], 0.15; in [15], 0.29; in series [17], 0.29; in series [22], 0.29.

In the case of `Cc1cc(C)n2nc(N3CCCCC3)c(C#N)c2n1`, the MBC in series [2], in series [5], in [11] and in [24] was 16 mg/mL (≈ 62.7 mM) each time. Besides, the “growth inhibition (GI)” value in [3], in series [8], in series [16] and in series [25] was “inactive” in each case. Besides, the minimum inhibitory concentration (MIC) in [4], in series [10], in [13] and in [20] was 16 mg/mL (≈ 62.7 mM) in each case. Moreover, the zone of inhibition at 1000 µg/mL in [6] was determined as 11 mm; in series [7], 12 mm; in [19], 7 mm; in series [21], 10 mm; in series [23], 6 mm. Also, half-maximal cytotoxicity in series [9] (CC50) was put at 1.25 mg/mL (≈ 4.9 mM). Moreover, the “Selectivity Index” value in series [12], in series [14], in [17] and in series [22] was 0.08 in each case.

For `Cc1cc(O)n2nc(N3CCOCC3)c(C#N)c2n1`, the MBC is above 16 mg/mL in [1], 16 mg/mL (≈ 61.7 mM) in series [2], 16 mg/mL (≈ 61.7 mM) in [5] and above 16 mg/mL in series [11]. The “growth inhibition (GI)” value in series [3], in series [8], in series [16] and in series [25] was “inactive” in each case. Further, the MIC in series [4] is 16 mg/mL (≈ 61.7 mM); in series [13], 8 mg/mL (≈ 30.9 mM); in [18], 8 mg/mL (≈ 30.9 mM); in series [20], 16 mg/mL (≈ 61.7 mM). For the same compound, the zone of inhibition at 1000 µg/mL in [6] came to 10 mm; in [7] it was 9 mm; in [19], 6 mm; in series [21], 9 mm; in [23], 7 mm. Moreover, the cytotoxic concentration (CC50) in [9] was found to be 0.063 mg/mL (≈ 0.243 mM). Also, the “Selectivity Index” value in series [12] was 0; in [14], 0.01; in [15], 0.01; in series [22], 0.
